Source: the NIST ThermoML archive (doi:10.1016/j.jct.2019.03.007)

Test: molar heat capacity at constant pressure
Details: 101.33 kPa, Crystal 1, DSC

O=[N+]([O-])[O-].O=[N+]([O-])[O-].[Ca+2] [calcium nitrate]
Details	molar heat capacity at constant pressure [J/K/mol]
361.78 K	152.56
362.18 K	160.28
362.78 K	152.75
363.18 K	160.44
363.78 K	152.95
364.18 K	160.63
364.78 K	153.15
365.18 K	160.81
365.78 K	153.35
366.18 K	161.02
366.78 K	153.54
367.18 K	161.17
367.78 K	153.74
368.18 K	161.33
368.78 K	153.94
369.18 K	161.53
369.78 K	154.14
370.18 K	161.7
370.78 K	154.34
371.18 K	161.95
371.78 K	154.54
372.18 K	162.09
372.78 K	154.75
373.18 K	162.29
373.78 K	154.94
374.18 K	162.35
374.78 K	155.12
375.18 K	162.54
375.78 K	155.3
376.18 K	162.75
376.78 K	155.47
377.18 K	162.97
377.78 K	155.64
378.18 K	163.18
378.78 K	155.81
379.18 K	163.4
379.78 K	155.97
380.18 K	163.62
380.78 K	156.14
381.18 K	163.84
381.78 K	156.31
382.18 K	164.05
382.78 K	156.48
383.18 K	164.32
383.78 K	156.65
384.18 K	164.57
384.78 K	156.82
385.18 K	164.8
385.78 K	156.99
386.18 K	164.98
386.78 K	157.16
387.18 K	165.18
387.78 K	157.33
388.18 K	165.31
388.78 K	157.5
389.18 K	165.47
389.78 K	157.67
390.18 K	165.67
390.78 K	157.83
391.18 K	165.88
391.78 K	158
392.18 K	166.07
392.78 K	158.17
393.18 K	166.27
393.78 K	158.34
394.18 K	166.46
394.78 K	158.51
395.18 K	166.6
395.78 K	158.68
396.18 K	166.74
396.78 K	158.86
397.18 K	166.86
397.78 K	159.03
398.18 K	167.03
398.78 K	159.2
399.18 K	167.15
399.78 K	159.38
400.18 K	167.33
400.78 K	159.54
401.18 K	167.43
401.78 K	159.71
402.18 K	167.63
402.78 K	159.87
403 K	160.69
403.18 K	167.77
403.78 K	160.04
404 K	160.78
404.18 K	167.98
404.78 K	160.23
405 K	161.04
405.18 K	168.21
405.78 K	160.41
406 K	160.25
406.18 K	168.41
406.78 K	160.58
407 K	160.32
407.18 K	168.63
407.78 K	160.76
408 K	160.3
408.18 K	168.88
408.78 K	160.93
409 K	160.49
409.18 K	169.09
409.78 K	161.1
410 K	161.08
410.18 K	169.35
410.78 K	161.27
411 K	160.76
411.18 K	169.49
411.78 K	161.44
412 K	160.92
412.18 K	169.72
412.78 K	161.61
413 K	161.04
413.18 K	169.84
413.78 K	161.77
414 K	161.26
414.18 K	170.06
414.78 K	161.94
415 K	161.41
415.18 K	170.21
415.78 K	162.11
416 K	161.42
416.18 K	170.45
416.78 K	162.27
417 K	161.52
417.18 K	170.58
417.78 K	162.43
418 K	161.73
418.18 K	170.76
418.78 K	162.59
419 K	162.11
419.18 K	170.93
419.78 K	162.75
420 K	162.15
420.18 K	171.07
420.78 K	162.91
421 K	162.33
421.18 K	171.17
421.78 K	163.06
422 K	162.71
422.18 K	171.32
422.78 K	163.22
423 K	162.96
423.18 K	171.45
423.78 K	163.38
424 K	163.14
424.18 K	171.55
424.78 K	163.54
425 K	163.33
425.18 K	171.73
425.78 K	163.69
426 K	163.37
426.18 K	171.87
426.78 K	163.85
427 K	163.76
427.18 K	172.05
427.78 K	164.01
428 K	163.77
428.18 K	172.26
428.78 K	164.17
429 K	163.7
429.18 K	172.5
429.78 K	164.33
430 K	163.8
430.18 K	172.74
430.78 K	164.49
431 K	163.76
431.18 K	173.01
431.78 K	164.65
432 K	163.92
432.18 K	173.21
432.78 K	164.81
433 K	164.38
433.18 K	173.43
433.78 K	164.96
434 K	164.69
434.18 K	173.63
434.78 K	165.13
435 K	164.65
435.18 K	173.82
435.78 K	165.29
436 K	164.7
436.18 K	174.04
436.78 K	165.45
437 K	164.8
437.18 K	174.21
437.78 K	165.61
438 K	165.07
438.18 K	174.35
438.78 K	165.77
439 K	165.44
439.18 K	174.62
439.78 K	165.93
440 K	165.84
440.18 K	174.82
440.78 K	166.09
441 K	165.74
441.18 K	175.02
441.78 K	166.26
442 K	165.94
442.18 K	175.16
442.78 K	166.42
443 K	166.4
443.18 K	175.33
443.78 K	166.58
444 K	166.4
444.18 K	175.47
444.78 K	166.75
445 K	166.55
445.18 K	175.65
445.78 K	166.92
446 K	166.46
446.18 K	175.77
446.78 K	167.08
447 K	166.39
447.18 K	175.94
447.78 K	167.25
448 K	166.47
448.18 K	176.08
448.78 K	167.41
449 K	166.51
449.18 K	176.2
449.78 K	167.57
450 K	166.69
450.18 K	176.36
450.78 K	167.73
451 K	166.81
451.18 K	176.52
451.78 K	167.88
452 K	166.99
452.18 K	176.72
452.78 K	168.04
453 K	167.12
453.18 K	176.94
453.78 K	168.19
454 K	167.19
454.18 K	177.19
454.78 K	168.34
455 K	167.39
455.18 K	177.36
455.78 K	168.49
456 K	167.61
456.18 K	177.51
456.78 K	168.64
457 K	167.67
457.18 K	177.68
457.78 K	168.79
458 K	167.76
458.18 K	177.88
458.78 K	168.94
459 K	167.66
459.18 K	178.01
459.78 K	169.09
460 K	167.65
460.18 K	178.19
